Measurements taken from PMC9782211 (Microorganisms, 2022).

Experiments:
[1] = system: human mononuclear cells (hMNCs); assay: MTT test, metabolic activity of human mononuclear cells; format: cell-based
Protocol: Furthermore, the MTT assay was performed to determine the metabolic activity of the cells. In this test, the determination of cell viability is based on the reduction of the yellow water-soluble substance 3-(4,5-Dimethylthiazol-2-yl)-2,5-diphenyltetrazoliumbromid (MTT) into a blue-violet water-insoluble formacan.

human erythrocytes = assay: Hemolysis assay; format: cell-based; conditions: pH 7.4, 37 °C, 30 min
Protocol: The activity of the peptides to lyse freshly isolated human erythrocytes was determined in PBS, pH 7.4 at 37 °C. Dilutions were prepared in duplicate in a round bottom microtiter plate. For that, 20 µL erythrocytes (5 · 10^8 cells/mL) was incubated with 80 µL of a peptide sample at 37 °C for 30 min in a humidified box. The hemolytic activity after incubation was measured by transferring the supernatants into another empty microtiter plate. This plate was read on a microtiter plate reader at 405 nm. Hemolytic activity was expressed as the percentage of released hemoglobin with respect to water/buffer controls (100% release) or controls processed without peptides (0% release).
Red blood cells (RBCs) were obtained from citrated human blood by centrifugation (1500× g, 10 min), washed three times with isotonic 20 mM phosphate-NaCl buffer (pH 7.4), and suspended in the same buffer at a concentration equivalent to 5% of the normal hematocrit. […] The supernatants were analyzed spectrophotometrically (with absorbance at 543 nm) for hemoglobin, and results were expressed as the percentage released with respect to sonicated controls (100% release) or controls processed without peptides (0% release).

hERG ion channel = hERG ion channel (Homo sapiens, UniProt Q12809); assay: Manual patch clamp, hERG channel currents; format: cell-based; conditions: 1 µg/mL, fraction
Protocol: Manual patch clamp experiments were performed in the whole cell configuration [20] at room temperature. An EPC 10 patch clamp amplifier and the PatchMaster software (v2x90.5; both HEKA Elektronik, Germany) were used. […] The data were analyzed using R (version 3.6.3).
The manual patch clamp recordings on the hERG ion channel were performed with the same stimulation protocol as previously described, with an adjusted holding potential of −70 mV. After the establishment of the whole cell, the stimulation protocol was executed every 15 s for a period of 20 min. The application protocol had the following course: 5 min negative control period with an application of 0.1% DMSO, 10 min application of the test compound in one concentration, and 5 min positive control period with an application of E4031 (10 µM).
The extracellular solution for the recordings contained (in mM): 145 NaCl, 4 KCl, 10 glucose, 10 HEPES, 2 CaCl2, and 1 MgCl2; pH was adjusted to 7.4 by adding NaOH. The osmolarity of the solution was adjusted to 305 mOsmol/kg. The intracellular solution contained (in mM): 120 KCl, 1.7 MgCl2, 4 K2ATP, 5 CaCl2, 10 HEPES, and 10 EGTA; pH was adjusted to 7.2 by adding KOH. The osmolarity was adjusted to 292 mOsmol/kg.

local lymph node = assay: Local lymph node assay (LLNA), skin sensitization; format: in vivo, mouse
Protocol: • Application of substance on external surface of each ear (25 µL/ear) for 3 consecutive days • On day 6, intravenous injection of tritiated methyl thymidine (^3HTdR) in tail vein, and after about 6 h, sacrification and preparation of lymph node cell • Cell proliferation in lymph node measured by incorporation of ^3HTdR

[2] = Maximum attainable test concentration based on solubility; format: physicochemical; conditions: in aqueous 1% Pluronic PE9200
[3] = system: male and female Wistar rats; assay: 14-day repeated dose toxicology, continuous intravenous infusion; format: in vivo, rat
Protocol: Continuous intravenous infusion was performed over 14 days with 0.5 mg/kg, 3.2 mg/kg, and 20.0 mg/kg Pep19-2.5 and compared to the vehicle in male and female Wistar rats. Groups comprised 10 animals per gender, with an additional 5 animals per gender for recovery animals in the vehicle and high dose groups. The details of the 14-day repeated dose toxicity study will be published elsewhere.
Continuous intravenous infusion was performed over 14 days with 0.5 mg/kg, 3.2 mg/kg and 20.0 mg/kg Pep19-2.5 and compared to the vehicle in male and female Wistar rats. Groups comprised 10 animals per gender, with an additional 5 animals per gender for recovery animals in the vehicle and high dose groups. Based on the parameters determined, the following results were found: […]

male Wistar rats = assay: Modified Irwin test (neurobehavioral activity)
Protocol: In this test, an examination is done whether or not drugs induce behavioural and physiologically relevant effects. […] The modified Irwin test was performed under GLP conditions and was comprised of a standard observation battery of tests addressing various parameters of the central nervous, autonomic nervous, peripheral motor, and sensory systems.
The study comprised five treatment groups with six male animals each.
The following investigations were made at the following time points: • Mortality: twice daily during the observation period • Clinical observations: on the day of treatment before application • Body weight development: on the day of delivery and on the day of treatment before application • Modified Irwin test: at the time points pre-test (24 h prior to administration), 1 h, 4 h, 7 h, 24 h, 48 h, and 72 h after application.
Statistical analyses of the data were performed for each group separately. Group mean values (means) with standard deviation (SD) were calculated for body weights, each parameter of the Irwin Test, and each investigation time point.
For Irwin Test parameters, statistical differences between the positive control group and the vehicle control group and between the test item groups and the vehicle control group were evaluated by the Mann–Whitney U-test, using an MS Excel® statistics tool developed and validated in-house; p < 0.05 was accepted as the level of significance.

hERG ion channel, sequence (Q12809 whole entry): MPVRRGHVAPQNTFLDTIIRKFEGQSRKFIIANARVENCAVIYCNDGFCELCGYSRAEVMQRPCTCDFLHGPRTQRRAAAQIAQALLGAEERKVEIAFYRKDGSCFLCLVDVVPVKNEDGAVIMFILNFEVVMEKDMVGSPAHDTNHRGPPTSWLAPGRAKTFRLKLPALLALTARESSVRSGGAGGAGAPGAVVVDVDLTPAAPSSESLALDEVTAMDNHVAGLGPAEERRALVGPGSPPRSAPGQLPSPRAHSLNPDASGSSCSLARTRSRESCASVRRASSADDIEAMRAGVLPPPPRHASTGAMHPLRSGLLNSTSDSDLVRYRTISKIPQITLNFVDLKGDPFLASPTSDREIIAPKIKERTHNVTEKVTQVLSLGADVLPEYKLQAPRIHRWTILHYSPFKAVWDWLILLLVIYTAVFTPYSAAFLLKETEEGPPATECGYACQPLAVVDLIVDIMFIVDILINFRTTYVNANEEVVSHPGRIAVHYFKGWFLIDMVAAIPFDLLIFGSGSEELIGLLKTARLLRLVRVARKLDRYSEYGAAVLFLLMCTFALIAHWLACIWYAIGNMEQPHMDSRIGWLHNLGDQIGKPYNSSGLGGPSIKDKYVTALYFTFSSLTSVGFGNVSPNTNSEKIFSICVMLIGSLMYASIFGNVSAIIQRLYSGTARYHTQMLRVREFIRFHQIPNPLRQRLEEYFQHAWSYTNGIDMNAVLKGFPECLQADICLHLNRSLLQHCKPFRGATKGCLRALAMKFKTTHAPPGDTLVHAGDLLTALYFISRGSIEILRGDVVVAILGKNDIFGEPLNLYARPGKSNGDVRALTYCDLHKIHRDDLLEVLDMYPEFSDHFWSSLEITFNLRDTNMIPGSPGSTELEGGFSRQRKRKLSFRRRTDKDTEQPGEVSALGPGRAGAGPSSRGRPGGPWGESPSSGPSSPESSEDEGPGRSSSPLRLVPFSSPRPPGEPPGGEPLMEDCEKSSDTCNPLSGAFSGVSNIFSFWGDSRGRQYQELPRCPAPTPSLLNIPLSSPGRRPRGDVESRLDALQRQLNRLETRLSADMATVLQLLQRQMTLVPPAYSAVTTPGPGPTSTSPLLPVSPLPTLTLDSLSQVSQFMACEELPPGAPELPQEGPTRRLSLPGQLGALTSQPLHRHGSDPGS

For `N=C(N)NCCC[C@H](NC(=O)[C@H](Cc1ccc(O)cc1)NC(=O)[C@H](CCCCN)NC(=O)[C@H](CCCCN)NC(=O)[C@H](CS)NC(=O)CN)C(=O)N[C@@H](CCCNC(=N)N)C(=O)N[C@@H](Cc1ccccc1)C(=O)N[C@@H](CCCNC(=N)N)C(=O)N[C@@H](Cc1c[nH]c2ccccc12)C(=O)N[C@@H](CCCCN)C(=O)N[C@@H](Cc1ccccc1)C(=O)N[C@@H](CCCCN)C(=O)NCC(=O)N[C@@H](CCCCN)C(=O)N[C@@H](Cc1ccccc1)C(=O)N[C@@H](Cc1c[nH]c2ccccc12)C(=O)N[C@@H](Cc1ccccc1)C(=O)N[C@@H](Cc1c[nH]c2ccccc12)C(=O)NCC(N)=O` [Pep19-2.5], the “metabolic state of the hMNC” value ([1]; at 100 μg/mL) was “decreases dramatically”, the “concentration above which cytotoxicity increases (MTT)” value ([1]; hMNC, MTT test, Figure 1) was “above 20 μg/mL” and the lysis of erythrocytes (human erythrocytes; at 100 μg/mL, released hemoglobin vs 100% release control) was at most 20%. For the same compound, the “concentration above which cytotoxicity increases (hemolysis)” value (human erythrocytes) was “above 20 μg/mL”, the “Rel. Rem. Current ± SD (Manual Patch-Clamp)” value (hERG ion channel) was 1.00 ± 0.04 and the skin sensitization potential (local lymph node; 5%, 2.5%, 1% and 0.5% (w/v) in 1% Pluronic aqueous solution, 25 µL/ear, 3 consecutive days, 3HTdR incorporation) was “no skin sensitization potential”. For the same compound, the preliminary irritation/toxicity test (local lymph node; up to 5% (w/v) in aqueous 1% Pluronic) was “no adverse effect”, the “maximum attainable test concentration based on solubility” value [2] was 5 % (w/v) and the injection site findings ([3]; 20 mg/kg dose group) was “local irritating effect”. The body weight gain ([3]; all dose groups) was “No statistically significant effect”, the “ophthalmology, clinical chemistry, urine, organ weights” value ([3]; all dose groups) was “not affected” and the aPTT ([3]; female Wistar rats, 0.5 mg/kg/day, n = 10) was 19.9 ± 2.2 s. The PT ([3]; female, 0.5 mg/kg/day, n = 10) was 20.3 ± 2.5 s, the TT ([3]; female, 0.5 mg/kg/day, n = 10) was 25.7 ± 1.0 s and the TT ([3]; female, 3.2 mg/kg/day, n = 10) was 25.4 ± 1.0 s. The TT ([3]; female, 20.0 mg/kg/day, n = 10) was 25.8 ± 0.7 s, the mortality ([3]; high dose group 20 mg/kg) was “One male of the high dose group died” and the reticulocytes ([3]; high dose group, both genders, complete recovery) was “slightly reduced”. The behavioural findings ([3]; high dose group, single animals) was “test item-related behavioural findings (increased activity, muscle tremor, increased incidence of animals showing signs of discomfort, such as chromorhinorrhea or piloerection)”, the aPTT ([3]; male Wistar rats, 0.5 mg/kg/day, end of infusion, mean ± SD, n = 9) was 19.9 ± 1.7 s and the TT ([3]; male, 0,5 mg/kg/day, n = 9) was 25.3 ± 1.0 s. For the same compound, the PT ([3]; male, 0.5 mg/kg/day, n = 9) was 20.0 ± 1.1 s, the PT ([3]; male, 3.2 mg/kg/day, n = 10) was 21.5 ± 1.3 s and the TT ([3]; male, 3.2 mg/kg/day, n = 10) was 25.0 ± 0.9 s. It also gave an aPTT ([3]; male, 3.2 mg/kg/day, n = 10) of 18.6 ± 1.8 s, a TT ([3]; male, 20.0 mg/kg/day, n = 7) of 25.0 ± 0.8 s and a PT ([3]; male, n = 7, printed 0.5 mg/kg/day) of 20.9 ± 1.3 s. For the same compound, the histopathological systemic toxicity ([3]; rat, in vivo) was “absence of any histopathological systemic toxicity”, the “spontaneous locomotor activity, median score” value (“spontaneous locomotor activity” below) (male Wistar rats; 0.02 mg/kg b.w., 1 h, negative control 0.0, not significant) was −0.5 and the “positional passivity, median score” value (male Wistar rats; 0.02 mg/kg, 1 h, saline 1.0, p < 0.05) was 0.0. For the same compound, the “hind limb tone, median score” value (male Wistar rats; 0.02 mg/kg, 72 h, negative control 1.0) was 2.0, the “spontaneous locomotor activity” value (male Wistar rats; 0.2 mg/kg b.w., 48 and 72 h, saline −1.0, p < 0.05 at 72 h) was 0.5 and the “spontaneous locomotor activity” value (male Wistar rats; 0.2 mg/kg b.w., 1 h, negative control 0.0, not significant) was −1.0. The “head touch, median score” value (male Wistar rats; 0.2 mg/kg, 7 h, saline −1.0, p < 0.01) was 0.0, the “rearing, median score” value (male Wistar rats; 0.2 mg/kg, 48 h, saline −1.0, p < 0.05) was 1.0 and the “finger approach, median score” value (male Wistar rats; 0.2 mg/kg, 72 h, saline 0.0, p < 0.05) was 2.0. The “rearing, median score” value (male Wistar rats; 0.2 mg/kg, 72 h, saline −1.0, p < 0.01) was 1.0, the “spontaneous locomotor activity” value (male Wistar rats; 2 mg/kg b.w., 1 h, negative control 0.0, not significant) was −1.0 and the “effect in Irwin test” value (male Wistar rats; high dose 2 mg/kg single i.v.) was “Significant differences were also observed in the high dose group (2 mg/kg), in terms of sensitivity to pinching the tail and vocalization when touched and hind limb reflex”. For the same compound, the “vocalization when touched, median score” value (male Wistar rats; high dose 2 mg/kg, 1 and 24 h, control 0.0, p < 0.05) was 1.0, the “sensitivity to pinching of the tail, median score” value (shortened to “sensitivity to pinching”) (male Wistar rats; high dose 2 mg/kg, 1 h, negative control 0.0, p < 0.01) was −1.5 and the “sensitivity to pinching” value (male Wistar rats; high dose 2 mg/kg, 7 h, saline 0.0, p < 0.05) was −1.5. The “effect in Irwin test” value (male Wistar rats; low dose 0.02 mg/kg single i.v.) was “No effect”, the “sensitivity to pinching” value (male Wistar rats; low dose 0.02 mg/kg, 1 h) was 0.0 and the “effect in Irwin test” value (male Wistar rats; mid dose 0.2 mg/kg single i.v.) was “significant differences to the negative control were noted in rearing, spontaneous locomotor activity and sensitivity to pinching the tail”. For the same compound, the “sensitivity to pinching” value (male Wistar rats; mid dose 0.2 mg/kg, 1 h) was −1.5 and the neurobehavioral effects overall (male Wistar rats; single i.v., 0.02, 0.2 and 2 mg/kg) was “No relevant neurobehavioral effects”.
